US20040094749A1, “Method for producing a phenothiazine granulate with improved properties” (priority 2000, published 2004)

Assay: Solubility behavior of solid phenothiazine in acrylic acid (method 1b, NIR probe)
Conditions: room temperature
Protocol: Method for determining the solubility behavior of solid phenothiazine of different forms and particle size distributions
Thereafter, at time intervals of from 1 to 5 mm, either a.) a sample of the dispersion was taken and filtered and the phenothiazine content was determined by UV spectroscopy or b.) the phenothiazine content was determined directly by means of an NIR probe which dipped into the dispersion of phenothiazine in acrylic acid (NIRVIS universal spectrometer from Buchi having a transmission probe with 1.5 mm slit width. In order to prevent disturbances by solid particles in the measuring slit, this was closed by means of a metal screen having a mesh size of 0.18 mm).
For this purpose, in each case 1.33 g of the respective sample were added to 66 g of acrylic acid and measurements were carried out at intervals of one minute (Graph. 1).

## c1ccc2c(c1)Nc1ccccc1S2 [phenothiazine, 2,3,5,6-dibenzo-1,4-triazine]
  maximum solubility of phenothiazine in acrylic acid: about 2.8 % (m/m)
